Source: PMC7835349 (Communications Biology, 2021)
“And” between values parts separate entries of the source, which are not always exact repeats. Equal entries are not always repeated.

How the values were obtained:
cleaved caspase-3 (CC3) = assay: Cleaved caspase-3 in RS4;11 tumours by MSD ELISA; assay type: in vivo, C.B-17 SCID mouse; settings: for CC3 PD fold over vehicle, individual tumours: RS4;11, single dose 10 mg/kg or equivalent
Method: Tumours were excised, snap frozen in liquid nitrogen and stored at –80 °C. Tumours were homogenised in lysis buffer containing protease and phosphatase inhibitors, protein concentration determined by Pierce BCA Protein Assay Kit and diluted in lysis buffer to a protein concentration of 0.4 μg/μL. Cleaved caspase-3 (CC3) was measured using the mesoscale cleaved caspase-3 (Asp175) assay whole cell lysate kit according to manufacturer’s instructions. Induction of CC3 was expressed as fold change of treated tumours over vehicle control.

[1] = Tumour pharmacokinetics (released and total AZD4320) in RS4;11 tumours; assay type: in vivo, C.B-17 SCID mouse
Text: For tumour measurements, tumours were harvested, split into smaller pieces and snap frozen in liquid nitrogen. Frozen tumour samples were subsequently weighed and then homogenised for both ‘released’ and ‘total’ AZD4320. For ‘released’ AZD4320, samples were homogenised on ice with an equal volume (w/v) of blank plasma containing 0.2 M citric acid. The samples were then processed according to the aforementioned plasma approach. For ‘total’ AZD4320, samples were homogenised with an equal volume of plasma (w/v) and then processed according to the aforementioned ‘total’ approach.
Sample analyses were performed in batches containing study samples, calibration standards at 10 concentration levels, QC samples at three concentration levels in duplicate and blank samples. The analytical run acceptance criteria for calibration standards and QC samples was that at least 75% of back-calculated concentrations for calibration standards and at least 2/3 of the QC samples (at least 50% at each concentration level) should be within ±20% (±25% at LLOQ) from nominal value.
Female C.B.−17 SCID mice were purchased from Charles River Laboratories. Mice were 5–8 weeks old at the time of tumour implantation. All xenograft studies were conducted at our Association for the Assessment and Accreditation of Laboratory Animal Care accredited facility in Waltham, MA in accordance with ethical regulations described in the guidelines established by the internal Institutional Animal Care and Use Committee. The dendrimer conjugates were formulated in citrate/phosphate buffer pH 5.0, diluted 1:10 with 5% glucose containing 1% w/v Kolliphor HS15, and AZD4320 was formulated in 30% HP-β-CD and dosed as a weekly intravenous (IV) administration at a volume of 5 ml/kg at the indicated doses. Five million RS4;11, five million SUDHL-4 or five million OCI-LY-10 cells were injected subcutaneously in the right flank of mice in a volume of 0.1 ml. Tumour volumes (measured by caliper), animal body weight, and tumor condition were recorded twice weekly for the duration of the study. The tumour volume was calculated (taking length to be the longest diameter across the tumour and width to be the corresponding perpendicular diameter) using the formula: length (mm) x width (mm)^2/0.52. For efficacy studies, mice were randomized based on tumour volumes using stratified sampling and enrolled into control and treatment groups. Tumour growth inhibition from the start of treatment was quantified by measuring the difference in tumour volume between control and treated groups. Survival analysis was evaluated using Mantel-Cox test. Tumours were also taken for bioanalysis.

[2] = RS4;11 tumours, 10 mg/kg or equivalent

## CN(CCO)CCC(CSc1ccccc1)Nc1ccc(S(=O)(=O)NC(=O)c2ccc(N3CCC(C(O)c4ccccc4-c4ccc(Cl)cc4)CC3)cc2)cc1S(=O)(=O)C(F)(F)F (centres unmarked) [AZD4320]
Cleaved caspase-3 (CC3); 0.5 h, 10 mg/kg
  CC3 PD fold over vehicle, individual tumours: 36.58 fold over vehicle and 31.76 fold over vehicle
Cleaved caspase-3 (CC3); 1 h, 10 mg/kg
  CC3 PD fold over vehicle, individual tumours: 36.44 fold over vehicle and 36.82 fold over vehicle
Cleaved caspase-3 (CC3); 5 h, 10 mg/kg
  CC3 PD fold over vehicle, individual tumours: 42.22 fold over vehicle and 39.06 fold over vehicle
Cleaved caspase-3 (CC3); 24 h, 10 mg/kg
  CC3 PD fold over vehicle, individual tumours: 21.02 fold over vehicle and 47.67 fold over vehicle
Cleaved caspase-3 (CC3); [2]
  time of onset of CC3 activation: ≤ 0.5 h
Cleaved caspase-3 (CC3); RS4;11 tumours, 10 mg/kg, by 5 h, sustained for 24 h
  maximal activation of cleaved caspase-3 (CC3): 40 fold
[1]; RS4;11, single dose 10 mg/kg or equivalent, 0.5 h, 10 mg/kg
  Tumor PK Released AZD4320, individual tumours: 910 ng/g
[1]; RS4;11, single dose 10 mg/kg or equivalent, 1 h, 10 mg/kg
  Tumor PK Released AZD4320, individual tumours: 813 ng/g
[1]; RS4;11, single dose 10 mg/kg or equivalent, 5 h, 10 mg/kg
  Tumor PK Released AZD4320, individual tumours: 1290 ng/g and 307 ng/g
[1]; RS4;11, single dose 10 mg/kg or equivalent, 24 h, 10 mg/kg
  Tumor PK Released AZD4320, individual tumours: 232 ng/g
[1]; [2]
  time of maximum (released) AZD4320 concentration in tumour: ≤ 0.5 h
[1]; female, C.B-17 SCID, mouse, tumour (RS4;11 xenograft), intravenous, 10 mg/kg, RS4;11, single dose 10 mg/kg or equivalent, 0.5 h, read-out: Tumor PK released AZD4320, individual tumours
  concentration at 0.5 h: 1360 ng/g
[1]; female, C.B-17 SCID, mouse, tumour (RS4;11 xenograft), intravenous, 10 mg/kg, RS4;11, single dose 10 mg/kg or equivalent, 1 h, read-out: Tumor PK released AZD4320, individual tumours
  concentration at 1 h: 1220 ng/g
[1]; female, C.B-17 SCID, mouse, tumour (RS4;11 xenograft), intravenous, 10 mg/kg, RS4;11, single dose 10 mg/kg or equivalent, 24 h, read-out: Tumor PK released AZD4320, individual tumours
  concentration at 24 h: 359 ng/g
